≈ marks a conversion by molar mass, not a printed value.

By MIC is commonly meant the smallest concentration in the dilution series that meets the test's criterion for growth inhibition. High values mean a need for much substance, low ones inhibition by little substance.

The first assay relates to Mycobacterium tuberculosis. Kind of assay: Antituberculosis activity against Mycobacterium tuberculosis H37Rv after 5 days by MABA method. The settings on record: 120 h. The format is functional. For orientation: The colour change of resazurin is a common sign of viable cells or microbes.
As for `O=c1cc(Cn2cc(CSc3nc4ccccc4[nH]3)nn2)c2ccc(Cl)cc2o1`, 7.3 µM (≈ 3.09 µg/mL) was the least that counted as inhibitory (MIC).

In the case of `COc1ccc2c(Cn3cc(CSc4nc5ccccc5[nH]4)nn3)cc(=O)oc2c1`, the MIC worked out at 59.6 µM (≈ 25 µg/mL).

On to `Cc1cc(C)c2c(Cn3cc(CSc4nc5ccccc5[nH]4)nn3)cc(=O)oc2c1`, for which the minimal inhibitory concentration (MIC) is 3.8 µM (≈ 1.59 µg/mL).

With `O=c1cc(Cn2cc(CSc3nc4ccccc4[nH]3)nn2)c2cc(Cl)ccc2[nH]1`, the MIC worked out at 29.6 µM (≈ 12.5 µg/mL).

Turning to `Cc1ccc2c(Cn3cc(CSc4nc5ccccc5[nH]4)nn3)cc(=O)oc2c1C`, the MIC stood at 3.8 µM (≈ 1.59 µg/mL).

On to `O=c1cc(Cn2cc(CSc3nc4ccccc4[nH]3)nn2)c2ccc3ccccc3c2o1`, for which the MIC was found to be 28.4 µM (≈ 12.5 µg/mL).

Molecule `Cc1cccc2c(Cn3cc(CSc4nc5ccccc5[nH]4)nn3)cc(=O)[nH]c12` displayed a minimal inhibitory concentration (MIC) of 7.7 µM (≈ 3.1 µg/mL).

The molecule `Cc1ccc2c(Cn3cc(CSc4nc5ccccc5[nH]4)nn3)cc(=O)oc2c1` displayed an MIC of 7.7 µM (≈ 3.11 µg/mL).

With `Cc1ccc2oc(=O)cc(Cn3cc(CSc4nc5ccccc5[nH]4)nn3)c2c1`, the minimum inhibitory concentration (MIC) was determined as 7.7 µM (≈ 3.11 µg/mL).

Turning to `NC(=O)c1cnccn1` [PYRAZINAMIDE], inhibition of growth (MIC) required 25.3 µM (≈ 3.11 µg/mL).

In turn, `O=c1cc(Cn2cc(CSc3nc4ccccc4[nH]3)nn2)c2ccc(Cl)cc2[nH]1` yielded an MIC of 14.8 µM (≈ 6.26 µg/mL).

As for `O=c1cc(Cn2cc(CSc3nc4ccccc4[nH]3)nn2)c2c(ccc3ccccc32)o1`, inhibition of growth (MIC) required 14.2 µM (≈ 6.24 µg/mL).

The molecule `COc1ccc2oc(=O)cc(Cn3cc(CSc4nc5ccccc5[nH]4)nn3)c2c1` came in with a minimum inhibitory concentration (MIC) of 29.8 µM (≈ 12.5 µg/mL).

Molecule `O=c1cc(Cn2cc(CSc3nc4ccccc4[nH]3)nn2)c2ccccc2[nH]1` gave a minimal inhibitory concentration (MIC) of 32.2 µM (≈ 12.5 µg/mL).

For `O=c1cc(Cn2cc(CSc3nc4ccccc4[nH]3)nn2)c2ccc(O)cc2o1`, the minimum inhibitory concentration (MIC) is 30.8 µM (≈ 12.5 µg/mL).

On to `CN[C@@H]1[C@H](O[C@H]2[C@H](O[C@H]3[C@H](O)[C@@H](O)[C@H](N=C(N)N)[C@@H](O)[C@@H]3N=C(N)N)O[C@@H](C)[C@]2(O)C=O)O[C@@H](CO)[C@H](O)[C@H]1O` [STREPTOMYCIN], for which the MIC was 10.7 µM (≈ 6.22 µg/mL).

In turn, `O=C(O)c1cn(C2CC2)c2cc(N3CCNCC3)c(F)cc2c1=O` [CIPROFLOXACIN] came in with an MIC of 9.4 µM (≈ 3.11 µg/mL).

Another assay concerns Mycobacterium tuberculosis. The assay is described as follows: Potency index, ratio of streptomycin MIC to compound MIC for Mycobacterium tuberculosis H37Rv. The format is functional.
Conditions: not given
Take `Cc1cc(C)c2c(Cn3cc(CSc4nc5ccccc5[nH]4)nn3)cc(=O)oc2c1`: the Ratio came out at 3.

Turning to `Cc1ccc2c(Cn3cc(CSc4nc5ccccc5[nH]4)nn3)cc(=O)oc2c1C`, the Ratio worked out at 3.

Values taken from ChEMBL document CHEMBL4428093, “One pot Click chemistry: A three component reaction for the synthesis of 2-mercaptobenzimidazole linked coumarinyl triazoles as anti-tubercular agents” (2016).
